Values joined by “and” are separate entries in the source; they are usually repeats but may differ in a detail not shown here. Equal entries are not always repeated. Inconclusive results and toxic doses are left out.
System: P388 leukemia ip, CD2F1 mice, survival T/C
Experiment: NCI In Vivo Anticancer Drug Screen. Data for tumor model P388 Leukemia (intraperitoneal) in CD2F1 (CDF1) mice
Settings: endpoint: median survival time, higher = longer survival
Outline: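 Mice carrying the transplanted tumor received test compound or vehicle. Survival was recorded in each group, and the value is the treated-group measurement divided by that of the vehicle-treated control group.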

[1] = dose: 50.0 mg/kg/injection, schedule: Q01DX009 (ip), vehicle: Klucel (hydroxypropylcellulose) (HPC)
[2] = dose: 100.0 mg/kg/injection, schedule: Q01DX009 (ip), vehicle: Klucel (hydroxypropylcellulose) (HPC)
[3] = dose: 50.0 mg/kg/injection, schedule: Q01DX009 (ip), vehicle: saline with Tween-80
[4] = dose: 100.0 mg/kg/injection, schedule: Q01DX009 (ip), vehicle: saline with Tween-80
[5] = dose: 200.0 mg/kg/injection, schedule: Q01DX009 (ip), vehicle: saline with Tween-80
[6] = dose: 60.0 mg/kg/injection, schedule: Q01DX005 (ip), vehicle: saline with Tween-80
[7] = dose: 120.0 mg/kg/injection, schedule: Q01DX005 (ip), vehicle: saline with Tween-80
[8] = dose: 50.0 mg/kg/injection, schedule: Q01DX005 (ip), vehicle: Klucel (hydroxypropylcellulose) (HPC)
[9] = dose: 100.0 mg/kg/injection, schedule: Q01DX005 (ip), vehicle: Klucel (hydroxypropylcellulose) (HPC)
[10] = dose: 50.0 mg/kg/injection, schedule: Q01DX005 (ip), vehicle: saline with Tween-80
[11] = dose: 100.0 mg/kg/injection, schedule: Q01DX005 (ip), vehicle: saline with Tween-80
[12] = dose: 200.0 mg/kg/injection, schedule: Q01DX005 (ip), vehicle: saline with Tween-80
[13] = dose: 200.0 mg/kg/injection, schedule: Q01DX009 (ip), vehicle: Klucel (hydroxypropylcellulose) (HPC)

In the case of `CCOC(=O)Nc1cccc([N+](=O)[O-])c1`, the T/C (dose: 100.0 mg/kg/injection, schedule: Q04DX003 (ip), vehicle: other) is reported as 95 % of control, the T/C (dose: 200.0 mg/kg/injection, schedule: Q04DX003 (ip), vehicle: other) is reported as 95 % of control and the T/C (dose: 400.0 mg/kg/injection, schedule: Q04DX003 (ip), vehicle: other) is reported as 100 % of control.

In the case of `CCN(CC)C1=CC(=O)OC1OC` (stereo not drawn), the T/C (dose: 60.0 mg/kg/injection, schedule: Q01DX005 (ip), vehicle: saline) is reported as 95 % of control and the T/C (dose: 120.0 mg/kg/injection, schedule: Q01DX005 (ip), vehicle: saline) is reported as 94 % of control.

With `O=C1c2ccc(Cl)cc2NC(O)c2cccn21` (stereo not drawn) the T/C (dose: 0.1 mg/kg/injection, schedule: Q01DX005 (ip), vehicle: water) was 99 % of control, the T/C (dose: 0.2 mg/kg/injection, schedule: Q01DX005 (ip), vehicle: water) was 98 % of control and the T/C (dose: 0.4 mg/kg/injection, schedule: Q01DX005 (ip), vehicle: water) was 98 % of control. The T/C (dose: 0.8 mg/kg/injection, schedule: Q01DX005 (ip), vehicle: water) was 100 % of control, the T/C (dose: 1.6 mg/kg/injection, schedule: Q01DX005 (ip), vehicle: water) was 98 % of control and the T/C (dose: 5.0 mg/kg/injection, schedule: Q01DX005 (ip), vehicle: distilled water + Tween-80) was 95 % of control. The T/C (dose: 10.0 mg/kg/injection, schedule: Q01DX005 (ip), vehicle: distilled water + Tween-80) was 99 % of control, the T/C (dose: 20.0 mg/kg/injection, schedule: Q01DX005 (ip), vehicle: distilled water + Tween-80) was 100 % of control and the T/C (dose: 40.0 mg/kg/injection, schedule: Q01DX005 (ip), vehicle: distilled water + Tween-80) was 93 % of control. For the same compound, the T/C (dose: 80.0 mg/kg/injection, schedule: Q01DX005 (ip), vehicle: distilled water + Tween-80) was 98 % of control.

In the case of `CC(=O)C1=C(O)/C(=C\c2ccccc2)OC1=O`, the T/C [1] is reported as 92 % of control and the T/C [2] is reported as 107 % of control.

In the case of `CCCCN(CCCC)c1nsc(N2CCOCC2)n1`, the T/C [3] is reported as 94 % of control, the T/C [4] is reported as 100 % of control and the T/C [5] is reported as 108 % of control.

`Cc1ccc2c(c1)sc1n[nH]c(=O)n12` was tested, and the T/C [1] was 100 % of control and the T/C [2] was 105 % of control.

In the case of `Cc1ccc(NC(=O)Oc2ccccc2F)c([N+](=O)[O-])c1`, the T/C [3] is reported as 115 % of control, the T/C [4] is reported as 115 % of control and the T/C [5] is reported as 115 % of control.

For `CC1(C)CCc2c(cc3c(c2O)CCC(C)(C)O3)O1`, the T/C [6] was 109 % of control, the T/C [7] was 117 % of control and the T/C (dose: 240.0 mg/kg/injection, schedule: Q01DX005 (ip), vehicle: saline with Tween-80) was 100 % of control.

In the case of `C=C(Br)CC(N)C(=O)O` (stereo not drawn), the T/C [8] is reported as 116 % of control and the T/C [9] is reported as 106 % of control.

With `CC1(C)OP(=O)(O)C=C1Br` the T/C (dose: 50.0 mg/kg/injection, schedule: Q01DX009 (ip), vehicle: saline) was 103 % of control, the T/C (dose: 100.0 mg/kg/injection, schedule: Q01DX009 (ip), vehicle: saline) was 107 % of control and the T/C (dose: 200.0 mg/kg/injection, schedule: Q01DX009 (ip), vehicle: saline) was 93 % of control.

In the case of `Cc1ccc(OC/C=N\N=C(N)N)cc1C`, the T/C [6] is reported as 101 % of control and the T/C [7] is reported as 93 % of control.

For `C=C(C)C1Oc2ccc(C(C)=O)cc2C1O` (stereo not drawn), the T/C (dose: 8.8 mg/kg/injection, schedule: Q01DX009 (ip), vehicle: saline) was 103 % of control, the T/C (dose: 17.5 mg/kg/injection, schedule: Q01DX009 (ip), vehicle: saline) was 89 % of control and the T/C (dose: 35.0 mg/kg/injection, schedule: Q01DX009 (ip), vehicle: saline) was 100 % of control.

In the case of `NC(=S)N/N=C\Cn1cc([N+](=O)[O-])c(=O)[nH]c1=O`, the T/C [8] is reported as 101 % of control and the T/C [9] is reported as 87 % of control.

`CC(=O)Nc1ccc(S(=O)(=O)NCCSS(=O)(=O)O)cc1` was tested, and the T/C [10] was 101 % of control, the T/C [11] was 109 % of control and the T/C [12] was 109 % of control.

For `CSc1nc(N)c(C(=O)c2sc(SC)nc2N)s1`, the T/C (dose: 12.5 mg/kg/injection, schedule: Q01DX005 (ip), vehicle: Klucel (hydroxypropylcellulose) (HPC)) was 100 % of control, the T/C (dose: 25.0 mg/kg/injection, schedule: Q01DX005 (ip), vehicle: Klucel (hydroxypropylcellulose) (HPC)) was 92 % of control and the T/C [8] was 90 % of control and 97 % of control.

`c1ccc2nc3c(ccc4ccccc43)cc2c1` was tested, and the T/C (dose: 50.0 mg/kg/injection, schedule: Q04DX003 (ip), vehicle: olive oil, sesame oil, peanut oil) was 101 % of control, the T/C (dose: 91.0 mg/kg/injection, schedule: Q04DX003 (ip), vehicle: saline with Tween-80) was 104 % of control and the T/C (dose: 100.0 mg/kg/injection, schedule: Q04DX003 (ip), vehicle: olive oil, sesame oil, peanut oil) was 103 % of control. For the same compound, the T/C (dose: 182.0 mg/kg/injection, schedule: Q04DX003 (ip), vehicle: saline with Tween-80) was 101 % of control, the T/C (dose: 200.0 mg/kg/injection, schedule: Q04DX003 (ip), vehicle: olive oil, sesame oil, peanut oil) was 103 % of control and the T/C (dose: 364.0 mg/kg/injection, schedule: Q04DX003 (ip), vehicle: saline with Tween-80) was 99 % of control. The T/C (dose: 400.0 mg/kg/injection, schedule: Q04DX003 (ip), vehicle: olive oil, sesame oil, peanut oil) was 105 % of control.

In the case of `COc1ccc(C2OC3=C(Nc4ccccc4N3)C2=O)cc1` (stereo not drawn), the T/C (dose: 60.0 mg/kg/injection, schedule: Q01DX005 (ip), vehicle: Klucel (hydroxypropylcellulose) (HPC)) is reported as 97 % of control, the T/C (dose: 120.0 mg/kg/injection, schedule: Q01DX005 (ip), vehicle: Klucel (hydroxypropylcellulose) (HPC)) is reported as 97 % of control and the T/C (dose: 240.0 mg/kg/injection, schedule: Q01DX005 (ip), vehicle: Klucel (hydroxypropylcellulose) (HPC)) is reported as 98 % of control.

With `Nc1nc(N)c2c(Cl)c(CNc3ccc(C(=O)NC(CC(=O)O)C(=O)O)cc3)ccc2n1` (stereo not drawn) the T/C (dose: 0.39 mg/kg/injection, schedule: Q01DX009 (ip), vehicle: saline with Tween-80) was 210 % of control, the T/C (dose: 0.78 mg/kg/injection, schedule: Q01DX009 (ip), vehicle: saline with Tween-80) was 201 % of control and the T/C (dose: 1.56 mg/kg/injection, schedule: Q01DX009 (ip), vehicle: saline with Tween-80) was 90 % of control. The T/C (dose: 780.0 micrograms/kg/injection, schedule: Q01DX009 (ip), vehicle: saline with Tween-80) was 194 % of control and the T/C (dose: 1560.0 micrograms/kg/injection, schedule: Q01DX009 (ip), vehicle: saline with Tween-80) was 94 % of control.

With `CN(CCN1C(=O)c2cccc3cc([N+](=O)[O-])cc(c23)C1=O)CCN1C(=O)c2cccc3cc([N+](=O)[O-])cc(c23)C1=O` the T/C [10] was 98 % of control, the T/C [11] was 97 % of control and the T/C [12] was 114 % of control.

`CCCCCCSc1nn(CCC#N)c(=O)[nH]c1=O` was tested, and the T/C (dose: 25.0 mg/kg/injection, schedule: Q01DX005 (ip), vehicle: distilled water + alcohol) was 103 % of control, the T/C (dose: 50.0 mg/kg/injection, schedule: Q01DX005 (ip), vehicle: distilled water + alcohol) was 108 % of control and the T/C (dose: 100.0 mg/kg/injection, schedule: Q01DX005 (ip), vehicle: distilled water + alcohol) was 103 % of control. The T/C (dose: 200.0 mg/kg/injection, schedule: Q01DX005 (ip), vehicle: distilled water + alcohol) was 92 % of control.

For `CC12CCC3C(C1)C(C(=O)O2)C(=O)OC3(C)C` (stereo not drawn), the T/C [1] was 93 % of control, the T/C [2] was 101 % of control and the T/C [13] was 97 % of control.

In the case of `S=c1[nH]ccc2ccccc12`, the T/C [1] is reported as 100 % of control, the T/C [2] is reported as 101 % of control and the T/C [13] is reported as 119 % of control. The T/C (dose: 400.0 mg/kg/injection, schedule: Q01DX009 (ip), vehicle: Klucel (hydroxypropylcellulose) (HPC)) was 105 % of control.

In the case of `CCOc1ccc(C(CC)c2cc3c(cc2OC)OCO3)cc1` (stereo not drawn), the T/C (dose: 60.0 mg/kg/injection, schedule: Q01DX005 (ip), vehicle: saline + Tween-80 + alcohol) is reported as 100 % of control, the T/C (dose: 120.0 mg/kg/injection, schedule: Q01DX005 (ip), vehicle: saline + Tween-80 + alcohol) is reported as 100 % of control and the T/C (dose: 240.0 mg/kg/injection, schedule: Q01DX005 (ip), vehicle: saline + Tween-80 + alcohol) is reported as 100 % of control.

In the case of `CC1CC=CCC1C1NC(C(=O)O)CS1` (stereo not drawn), the T/C (dose: 50.0 mg/kg/injection, schedule: Q01DX009 (ip), vehicle: suspension in saline) is reported as 106 % of control, the T/C (dose: 100.0 mg/kg/injection, schedule: Q01DX009 (ip), vehicle: suspension in saline) is reported as 107 % of control and 88 % of control and the T/C (dose: 200.0 mg/kg/injection, schedule: Q01DX009 (ip), vehicle: suspension in saline) is reported as 98 % of control and 96 % of control.

In the case of `O/N=C\C[n+]1cc2ccccc2cc1/C=N\O`, the T/C [10] is reported as 112 % of control and the T/C [11] is reported as 109 % of control.
